The values that follow come from PubChem BioAssay (NCI).

Among the test systems are CAKI-1 renal; CCRF-CEM leukemia; HS 578T breast; K-562 leukemia; MCF7 breast; MDA-MB-231 breast; SF-295 CNS; SF-539 CNS; SK-MEL-28 melanoma; TK-10 renal.
What all share (assay): growth of human tumour cells (NCI), 48 h

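Dose response: 5 concentrations. Exposure: 48 h. Format: 96-well plates. Endpoint: linear interpolation; highest concentration if not reached. GI50 = concentration required for 50% inhibition of growth. TGI denotes the concentration required for complete inhibition of growth.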

Regarding `OC(c1cc(C(F)(F)F)nc2c(Cl)cc(Cl)cc12)C1CCCCN1` (stereo unspecified), the TGI with CAKI-1 renal was 21.2 µM; in the test with CCRF-CEM leukemia, 4.08 µM; in the test with HS 578T breast, over 48.4 µM; with K-562 leukemia, over 34.1 µM; in the test with MCF7 breast, over 25.8 µM; in the test with MDA-MB-231 breast, over 44.8 µM. The TGI in the test on SF-295 CNS was 25.4 µM; in the test on SF-539 CNS it was 29.9 µM; in the test on SK-MEL-28 melanoma, 29.5 µM; in the test on TK-10 renal it was over 32.8 µM.
Regarding `CC1Cc2c(Cl)ncnc2N(C)c2ccccc21` (stereo unspecified), the GI50 is 3.39 µM with CAKI-1 renal; 4.53 µM in the test with CCRF-CEM leukemia; 1.36 µM in the test on HS 578T breast; 4.44 µM with K-562 leukemia; 3.17 µM in the test with MCF7 breast; 2.39 µM in the test with MDA-MB-231 breast. Besides, the GI50 in the test with SF-295 CNS was 3.28 µM; with SF-539 CNS, 4.56 µM; with SK-MEL-28 melanoma it was 1.82 µM; in the test on TK-10 renal, 2.57 µM. Besides, the TGI was over 100 µM with CAKI-1 renal; over 100 µM in the test on CCRF-CEM leukemia; 47.3 µM in the test with HS 578T breast; over 100 µM in the test on K-562 leukemia; 14.5 µM in the test on MCF7 breast; 5.05 µM in the test on MDA-MB-231 breast. For the same compound, the TGI worked out at 37.4 µM in the test with SF-295 CNS, 37.2 µM in the test with SF-539 CNS, 26.5 µM with SK-MEL-28 melanoma and 8.87 µM with TK-10 renal.
Take `COc1cc2c(cc1OCC(=O)Nc1ccc(Cl)cc1C(=O)c1ccccc1Cl)N=CC1CCCN1C2=O` (stereo unspecified): the GI50 in the test on CAKI-1 renal is 13.6 µM; in the test with CCRF-CEM leukemia, 6.52 µM; in the test with HS 578T breast it was 7.17 µM; with K-562 leukemia, 4.23 µM; with MCF7 breast, 5.27 µM; with MDA-MB-231 breast, 10.7 µM. Also, the GI50 is 8.48 µM with SF-295 CNS, 19.6 µM in the test on SF-539 CNS, 19.9 µM with SK-MEL-28 melanoma and 12.2 µM in the test on TK-10 renal. For the same compound, the TGI was 28.3 µM in the test on CAKI-1 renal; over 100 µM in the test with CCRF-CEM leukemia; 24 µM with HS 578T breast; 19.9 µM in the test on K-562 leukemia; 17.5 µM in the test with MCF7 breast; 25.7 µM in the test on MDA-MB-231 breast. The TGI came out at 22.9 µM in the test with SF-295 CNS, 33.9 µM with SF-539 CNS, 36.4 µM in the test with SK-MEL-28 melanoma and 25.1 µM in the test with TK-10 renal.
With `CC(=O)C(CN1C(=O)c2ccccc2C1=O)C(C)=O`, the TGI with CAKI-1 renal, in the test with HS 578T breast, in the test with K-562 leukemia, with MCF7 breast, in the test on MDA-MB-231 breast and with SF-295 CNS was over 100 µM in each case. Also, the TGI in the test with SF-539 CNS, in the test with SK-MEL-28 melanoma and with TK-10 renal was over 100 µM throughout.
Consider `COc1ccc(/C(=N/O)c2ccccc2C2=Nc3ccccc3C(NCc3ccccc3)O2)cc1C` (stereo unspecified), for which the TGI with CAKI-1 renal is over 100 µM; in the test with CCRF-CEM leukemia it was over 100 µM; in the test with HS 578T breast, over 100 µM; in the test with K-562 leukemia, 97.4 µM; with MCF7 breast it was over 100 µM; with MDA-MB-231 breast it was over 100 µM. The figures for the TGI in the test with SF-295 CNS, in the test on SF-539 CNS and in the test on SK-MEL-28 melanoma were 67.3 µM, over 100 µM and over 100 µM, respectively.
Regarding `Cc1nc(N)c(N2CCN(S(=O)(=O)N(Cc3ccccc3)Cc3ccccc3)CC2)c(=O)[nH]1`, the TGI was over 100 µM with CCRF-CEM leukemia; 69.8 µM in the test with HS 578T breast; over 100 µM with K-562 leukemia; over 100 µM in the test with MCF7 breast; over 100 µM in the test on MDA-MB-231 breast; 65.8 µM with SF-295 CNS. Moreover, the TGI was 80.6 µM in the test on SF-539 CNS, 34.1 µM in the test with SK-MEL-28 melanoma and 59 µM in the test with TK-10 renal.
On to `CCOC(=O)N1CCC(N=C2CSc3nnc(-c4cc(C(F)(F)F)cc(C(F)(F)F)c4)n3N2)CC1`, for which the GI50 is 2.04 µM with CAKI-1 renal; 2.01 µM in the test on CCRF-CEM leukemia; 2.31 µM with HS 578T breast; 2.88 µM in the test on K-562 leukemia; 2.05 µM in the test on MCF7 breast; 1.81 µM in the test with MDA-MB-231 breast. In addition, the GI50 is 1.51 µM with SF-295 CNS, 2.06 µM in the test on SF-539 CNS and 1.87 µM in the test on SK-MEL-28 melanoma. The TGI was 5.97 µM in the test with CAKI-1 renal; 5.28 µM in the test on CCRF-CEM leukemia; 6.4 µM in the test on HS 578T breast; 6.92 µM with K-562 leukemia; 4.98 µM with MCF7 breast; 3.56 µM in the test on MDA-MB-231 breast. Also, the figures for the TGI with SF-295 CNS, with SF-539 CNS and with SK-MEL-28 melanoma were 3.08 µM, 3.88 µM and 3.75 µM, respectively.
As for `[N-]=[N+]=C(C(=O)CN1CCCC1=O)S(=O)(=O)c1ccccc1`, the TGI in the test with CCRF-CEM leukemia, with HS 578T breast, with K-562 leukemia, with MCF7 breast, in the test on MDA-MB-231 breast and in the test with SF-295 CNS was over 100 µM each time. For the same compound, the TGI in the test with SF-539 CNS, with SK-MEL-28 melanoma and in the test on TK-10 renal was over 100 µM throughout.
In the case of `CC(=O)C1=C(C)N(Cc2ccccc2)C2(O)C=CC(=O)C3=C(O)c4ccccc4C(=O)C312` (stereo unspecified), the GI50 in the test on CAKI-1 renal was 2.47 µM; in the test on HS 578T breast, 18.5 µM; in the test on K-562 leukemia, 8.68 µM; with MCF7 breast, 3.8 µM; in the test on MDA-MB-231 breast it was 2.1 µM; in the test with SF-295 CNS it was 12.5 µM. Also, the GI50 with SF-539 CNS was 2.91 µM; in the test with SK-MEL-28 melanoma it was 2.36 µM; with TK-10 renal it was 2.82 µM. In addition, the TGI in the test with CAKI-1 renal was 6.37 µM; in the test on HS 578T breast, 60 µM; in the test on K-562 leukemia it was over 100 µM; with MCF7 breast, 26.2 µM; in the test with MDA-MB-231 breast it was 5.97 µM; in the test with SF-295 CNS it was 27.9 µM. Besides, the TGI in the test with SF-539 CNS was 7.09 µM; in the test on SK-MEL-28 melanoma it was 6.1 µM; in the test on TK-10 renal, 6.18 µM.
With `O=C(O)c1cc(NCc2cc(O)ccc2O)ccc1O`, the TGI with CAKI-1 renal, with CCRF-CEM leukemia, with HS 578T breast, in the test with MCF7 breast, with MDA-MB-231 breast and with SF-295 CNS was over 100 µM each time. Further, the TGI with SF-539 CNS, with SK-MEL-28 melanoma and with TK-10 renal was over 100 µM in each case.
